PubChem BioAssay AID2749 (The Scripps Research Institute Molecular Screening Center, 2010)
Active and inactive are the calls of the source. How the calls were made is not given here.

Test system: IEC-6 rat intestinal epithelial cells, cytotoxicity, luminescence
Assay: cytotoxicity in IEC-6 cells, late-stage follow-up, cytotoxicity control for KLF5 inhibitor project, cell-based, luminescence, dose response (AID 2749)

Compound	IC50
CC(C)(C)c1ccc(C(=O)O/N=C(\N)c2ccccn2)cc1	25.5 µM (inactive)
COc1ccc(OCc2cccc(C(=O)Nn3cc([N+](=O)[O-])cn3)c2)cc1	> 39.8 µM (inactive)
CCOC(=O)c1sc(NC(=O)c2cc3c(s2)CCC(C)C3)nc1C (centres undefined)	> 39.8 µM (inactive)
CC(C)(C)C(=O)Nc1cc2nn(-c3ccccc3)nc2cc1Cl	> 39.8 µM (inactive)
O=C(NCCc1ccccc1F)c1ccc2c(c1)OCCO2	> 39.8 µM (inactive)
CCOC(=O)c1sc(NC(=O)c2ccc3ncsc3c2)nc1C	> 39.8 µM (inactive)
Cc1ccc2nc(NC(=O)CCCc3nc4ccccc4s3)sc2c1	> 39.8 µM (inactive)
CC(C)(C)c1ccc(-c2noc(CCC(=O)Nc3cccnc3)n2)cc1	> 39.8 µM (inactive)
CCOC(=O)c1sc(NC(=O)c2cc3ccccc3o2)nc1C	> 39.8 µM (inactive)
CN1CCN(c2ccc(-c3ccc4ccccc4n3)cc2)CC1	16.2 µM (inactive)
COC(=O)c1ccc2nc(Nc3nc4ccc(F)cc4s3)sc2c1	> 39.8 µM (inactive)
COc1cccc(C=NNc2ccc(C(=O)O)cc2)c1O	> 39.8 µM (inactive)
CCCc1ccc(C(=O)O/N=C(\N)c2ccccn2)cc1	> 39.8 µM (inactive)
CCCc1ccc(-c2ccc(/C=C/C(=O)O)cc2)nc1	> 39.8 µM (inactive)
O=C(NCCc1ccccc1)c1ccc2c(c1)OCCCO2	> 39.8 µM (inactive)
CN(C(=O)COC(=O)/C=C/c1cccc([N+](=O)[O-])c1)C1CCS(=O)(=O)C1 (centres undefined)	34.8 µM (inactive)
Cc1cc(C(=O)CN2C(=O)c3ccccc3S2(=O)=O)c(C)n1CC1CCCO1 (centres undefined)	> 39.8 µM (inactive)
COc1ccc(C(=O)Nc2ccccc2C(=O)NN=Cc2ccc(O)c(OC)c2)cc1	> 39.8 µM (inactive)
c1ccc(-c2ccc(-c3nc(-c4ccccn4)no3)cc2)cc1	14.2 µM (inactive)
